Results as given in paper PMC10826971, “Evaluating protein cross-linking as a therapeutic strategy to stabilize SOD1 variants in a mouse model of familial ALS” (PLOS Biology, 2024).

Experiments:
SOD1^H46R = target: T1, SOD1^H46R (Homo sapiens, UniProt P00441, H47R); assay: Differential scanning fluorimetry (DSF), thermal stability; assay type: binding
T1 construct: made in house; host or cells: EGy118ΔSOD1 yeast, YEp351 expression vector
Procedure: (§1) To understand how cross-linking effects SOD1 stability, we quantified changes in unfolding temperature (ΔTu, hereafter thermal stability).
(§2) The effect of cross-link formation on the thermal stability of SOD1 was determined by differential scanning fluorimetry as previously described. […] After incubation, SYPRO Orange (Invitrogen Corporation, Carlsbad, California, USA), an environmentally sensitive fluorescent dye which is quenched in an aqueous environment but becomes unquenched once it binds hydrophobic residues, was added to the reaction mixture to a final concentration of 200×. The samples were then transferred to a fast optical 96-well reaction plate (Applied Biosystem, Life Technologies Corporation, Carlsbad, California, USA) and loaded on to the real-time PCR machine (Applied Biosystem, Life Technologies Corporation, Carlsbad, California, USA) after plate was spun down to eliminate bubbles. The Melt curve template in StepOne Plus software was used to set up a method. […] The final concentration of DMSO in the reaction mixture was checked as it contributes to the denaturation of proteins. Dilutions were performed accordingly to maintain the final concentration of DMSO less than 1% (vol/vol). All samples were run in technical triplicates. The background data was subtracted from the average relative fluorescence and average derivate for each temperature point, and the data were normalized before Tus were quantified by averaging the negative first derivative of relative fluorescence of all 3 runs and identifying the local minima.

SOD1^A4V = target: T2, SOD1^A4V (Homo sapiens, UniProt P00441, A5V); assay: as above; assay type: binding
T2 construct: made in house; host or cells: EGy118ΔSOD1 yeast, YEp351 expression vector
T2 sequence (P00441 2-154 A5V limits assumed): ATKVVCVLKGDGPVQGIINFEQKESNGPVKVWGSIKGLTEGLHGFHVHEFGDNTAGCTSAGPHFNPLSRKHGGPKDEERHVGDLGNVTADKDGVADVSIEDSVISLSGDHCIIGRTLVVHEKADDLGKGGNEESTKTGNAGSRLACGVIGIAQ
Procedure: as §1, §2

T1 sequence (P00441 2-154 H47R limits assumed): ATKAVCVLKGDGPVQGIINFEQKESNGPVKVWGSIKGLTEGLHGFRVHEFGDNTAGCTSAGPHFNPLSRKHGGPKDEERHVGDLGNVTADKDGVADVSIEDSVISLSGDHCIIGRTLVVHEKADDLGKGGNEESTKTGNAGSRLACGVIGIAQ

[O-][S+]1CCCCS1 (stereo not drawn) [S-XL6, 1,2-dithiane-1-oxide]
Normalized ROX (SOD1^H46R; SOD1 H46R Protein+S-XL6, Avg. Temp 90.026): 0.15
Normalized ROX (SOD1^H46R; SOD1 H46R Protein+S-XL6, Avg. Temp 90.347): 0.14
Normalized ROX (SOD1^H46R; SOD1 H46R Protein+S-XL6, Avg. Temp 90.631): 0.13
Normalized ROX (SOD1^H46R; SOD1 H46R Protein+S-XL6, Avg. Temp 90.929): 0.12
Normalized ROX (SOD1^H46R; SOD1 H46R Protein+S-XL6, Avg. Temp 91.236): 0.12
Normalized ROX (SOD1^H46R; SOD1 H46R Protein+S-XL6, Avg. Temp 91.540): 0.11
Normalized ROX (SOD1^H46R; SOD1 H46R Protein+S-XL6, Avg. Temp 91.847): 0.10
Normalized ROX (SOD1^H46R; SOD1 H46R Protein+S-XL6, Avg. Temp 92.140): 0.10
Normalized ROX (SOD1^H46R; SOD1 H46R Protein+S-XL6, Avg. Temp 92.454): 0.09
Normalized ROX (SOD1^H46R; SOD1 H46R Protein+S-XL6, Avg. Temp 92.741): 0.08
Normalized ROX (SOD1^H46R; SOD1 H46R Protein+S-XL6, Avg. Temp 93.029): 0.08
Normalized ROX (SOD1^H46R; SOD1 H46R Protein+S-XL6, Avg. Temp 93.345): 0.07
Normalized ROX (SOD1^H46R; SOD1 H46R Protein+S-XL6, Avg. Temp 93.646): 0.07
Normalized ROX (SOD1^H46R; SOD1 H46R Protein+S-XL6, Avg. Temp 93.947): 0.06
Normalized ROX (SOD1^H46R; SOD1 H46R Protein+S-XL6, Avg. Temp 94.241): 0.06
Normalized ROX (SOD1^H46R; SOD1 H46R Protein+S-XL6, Avg. Temp 94.530): 0.0527
Normalized ROX (SOD1^H46R; SOD1 H46R Protein+S-XL6, Avg. Temp 94.809): 0.05
Normalized ROX (SOD1^H46R; SOD1 H46R Protein+S-XL6, Avg. Temp 95.129): 0.0441
Normalized ROX (SOD1^H46R; SOD1 H46R Protein+S-XL6, Avg. Temp 95.418): 0.04
Normalized ROX (SOD1^H46R; SOD1 H46R Protein+S-XL6, Avg. Temp 95.750): 0.0365
Normalized ROX (SOD1^H46R; SOD1 H46R Protein+S-XL6, Avg. Temp 96.054): 0.032
Normalized ROX (SOD1^H46R; SOD1 H46R Protein+S-XL6, Avg. Temp 96.342): 0.03
Normalized ROX (SOD1^H46R; SOD1 H46R Protein+S-XL6, Avg. Temp 96.634): 0.0257
Normalized ROX (SOD1^H46R; SOD1 H46R Protein+S-XL6, Avg. Temp 96.939): 0.0228
Normalized ROX (SOD1^H46R; SOD1 H46R Protein+S-XL6, Avg. Temp 97.230): 0.02
Normalized ROX (SOD1^H46R; SOD1 H46R Protein+S-XL6, Avg. Temp 97.449): 0.017
Normalized ROX (SOD1^H46R; SOD1 H46R Protein+S-XL6, Avg. Temp 97.842): 0.0143
Normalized ROX (SOD1^H46R; SOD1 H46R Protein+S-XL6, Avg. Temp 98.133): 0.0127
Normalized ROX (SOD1^H46R; SOD1 H46R Protein+S-XL6, Avg. Temp 98.436): 0.01
Normalized ROX (SOD1^H46R; SOD1 H46R Protein+S-XL6, Avg. Temp 98.745): 0.00697
Normalized ROX (SOD1^H46R; SOD1 H46R Protein+S-XL6, Avg. Temp 99.031): 0.00571
Normalized ROX (SOD1^H46R; SOD1 H46R Protein+S-XL6, Avg. Temp 99.342): 0.0034
Normalized ROX (SOD1^H46R; SOD1 H46R Protein+S-XL6, Avg. Temp 99.632): 0.00127
Normalized ROX (SOD1^H46R; SOD1 H46R Protein+S-XL6, Avg. Temp 99.860): 0.00
unfolding temperature (Tu) of S-XL6 cross-linked protein (SOD1^A4V; 10-fold molar excess S-XL6, 4 h 37°C, untreated 62.9°C): 79.3 °C
Normalized ROX (SOD1^A4V; SOD1 (A4V) + S-XL6, Avg. Temp 88.559): 0.8246
Normalized ROX (SOD1^A4V; SOD1 (A4V) + S-XL6, Avg. Temp 88.8631): 0.8068
Normalized ROX (SOD1^A4V; SOD1 (A4V) + S-XL6, Avg. Temp 89.1556): 0.7806
Normalized ROX (SOD1^A4V; SOD1 (A4V) + S-XL6, Avg. Temp 89.4509): 0.7704
Normalized ROX (SOD1^A4V; SOD1 (A4V) + S-XL6, Avg. Temp 89.7543): 0.7528
Normalized ROX (SOD1^A4V; SOD1 (A4V) + S-XL6, Avg. Temp 90.0524): 0.7438
Normalized ROX (SOD1^A4V; SOD1 (A4V) + S-XL6, Avg. Temp 90.3511): 0.7281
Normalized ROX (SOD1^A4V; SOD1 (A4V) + S-XL6, Avg. Temp 90.6551): 0.7134
Normalized ROX (SOD1^A4V; SOD1 (A4V) + S-XL6, Avg. Temp 90.9595): 0.6972
Normalized ROX (SOD1^A4V; SOD1 (A4V) + S-XL6, Avg. Temp 91.2522): 0.6869
Normalized ROX (SOD1^A4V; SOD1 (A4V) + S-XL6, Avg. Temp 91.5534): 0.6765
Normalized ROX (SOD1^A4V; SOD1 (A4V) + S-XL6, Avg. Temp 91.844): 0.6607
Normalized ROX (SOD1^A4V; SOD1 (A4V) + S-XL6, Avg. Temp 92.1549): 0.6557
Normalized ROX (SOD1^A4V; SOD1 (A4V) + S-XL6, Avg. Temp 92.4505): 0.6388
Normalized ROX (SOD1^A4V; SOD1 (A4V) + S-XL6, Avg. Temp 92.7501): 0.6357
Normalized ROX (SOD1^A4V; SOD1 (A4V) + S-XL6, Avg. Temp 93.0577): 0.6246
Normalized ROX (SOD1^A4V; SOD1 (A4V) + S-XL6, Avg. Temp 93.3585): 0.6123
Normalized ROX (SOD1^A4V; SOD1 (A4V) + S-XL6, Avg. Temp 93.6532): 0.6065
Normalized ROX (SOD1^A4V; SOD1 (A4V) + S-XL6, Avg. Temp 93.9591): 0.6047
Normalized ROX (SOD1^A4V; SOD1 (A4V) + S-XL6, Avg. Temp 94.2561): 0.5946
Normalized ROX (SOD1^A4V; SOD1 (A4V) + S-XL6, Avg. Temp 94.5503): 0.5850
Normalized ROX (SOD1^A4V; SOD1 (A4V) + S-XL6, Avg. Temp 94.8582): 0.5820
